# Molecular target: ROCK2 (human) (UniProt O75116)
# Assay: Inhibition of ROCK2 Kinase Activity
# Sequence of ROCK2 (human) (O75116 whole entry, looked up): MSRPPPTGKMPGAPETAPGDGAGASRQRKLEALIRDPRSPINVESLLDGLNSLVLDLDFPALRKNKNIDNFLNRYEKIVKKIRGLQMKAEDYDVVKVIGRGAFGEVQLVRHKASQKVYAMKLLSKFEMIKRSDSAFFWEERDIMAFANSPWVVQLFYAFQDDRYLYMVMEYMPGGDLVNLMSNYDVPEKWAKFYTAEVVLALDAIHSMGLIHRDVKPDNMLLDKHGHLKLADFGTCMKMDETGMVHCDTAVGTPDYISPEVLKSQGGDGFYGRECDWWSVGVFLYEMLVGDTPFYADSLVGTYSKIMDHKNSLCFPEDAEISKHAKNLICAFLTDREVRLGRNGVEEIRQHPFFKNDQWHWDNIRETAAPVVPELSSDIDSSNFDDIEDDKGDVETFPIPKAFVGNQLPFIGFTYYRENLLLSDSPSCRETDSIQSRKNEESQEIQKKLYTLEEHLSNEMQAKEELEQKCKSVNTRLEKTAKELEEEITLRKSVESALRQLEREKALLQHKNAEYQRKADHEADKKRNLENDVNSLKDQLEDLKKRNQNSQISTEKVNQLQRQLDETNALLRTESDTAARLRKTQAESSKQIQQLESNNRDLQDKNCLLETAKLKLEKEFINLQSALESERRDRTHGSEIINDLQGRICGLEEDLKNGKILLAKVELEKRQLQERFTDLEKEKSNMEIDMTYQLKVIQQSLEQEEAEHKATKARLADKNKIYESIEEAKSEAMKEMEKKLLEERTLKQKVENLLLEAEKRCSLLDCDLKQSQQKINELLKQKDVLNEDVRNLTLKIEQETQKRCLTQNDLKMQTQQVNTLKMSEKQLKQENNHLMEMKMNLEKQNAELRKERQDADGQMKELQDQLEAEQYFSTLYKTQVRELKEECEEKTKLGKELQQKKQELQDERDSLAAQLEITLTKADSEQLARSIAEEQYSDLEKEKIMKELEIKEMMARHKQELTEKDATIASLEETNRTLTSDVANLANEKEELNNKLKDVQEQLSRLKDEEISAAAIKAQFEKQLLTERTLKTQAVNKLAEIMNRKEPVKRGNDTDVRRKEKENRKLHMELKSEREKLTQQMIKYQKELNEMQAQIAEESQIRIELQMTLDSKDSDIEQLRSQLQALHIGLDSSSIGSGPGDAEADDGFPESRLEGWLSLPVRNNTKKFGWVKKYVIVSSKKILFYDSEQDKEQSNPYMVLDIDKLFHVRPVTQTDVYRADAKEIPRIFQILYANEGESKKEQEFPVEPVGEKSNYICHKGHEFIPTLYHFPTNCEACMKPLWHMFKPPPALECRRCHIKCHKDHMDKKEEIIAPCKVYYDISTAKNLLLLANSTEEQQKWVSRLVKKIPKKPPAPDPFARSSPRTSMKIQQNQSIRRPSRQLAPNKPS
row,SMILES,IC50 [µM]
1,CCCCCCCCC(=O)NCC(N)c1ccc(C(=O)Nc2ccncc2)cc1 (stereo unspecified),0.05 to 0.5
2,NC(CNC(=O)CC(c1ccccc1)c1ccccc1)c1ccc(C(=O)Nc2ccncc2)cc1 (stereo unspecified),0.05 to 0.5
3,NC(c1ccc(C(=O)Nc2ccncc2)cc1)C1CCCN1C(=O)C1CCCc2ccccc21 (stereo unspecified),0.5 to 5
4,CN(Cc1ccccc1)C(=O)CC(N)c1ccc(C(=O)Nc2ccncc2)cc1 (stereo unspecified),0.05 to 0.5
5,NC(CNC(=O)c1cnnc2ccccc12)c1ccc(C(=O)Nc2ccncc2)cc1 (stereo unspecified),0.5 to 5
6,CCCCNC(=O)NCC(N)c1ccc(C(=O)Nc2ccncc2)cc1 (stereo unspecified),0.5 to 5
7,COc1ccccc1C(=O)NCC(N)c1ccc(C(=O)Nc2ccncc2)cc1 (stereo unspecified),0.5 to 5
8,CS(=O)(=O)c1ccc(CNC(=O)CC(N)c2ccc(C(=O)Nc3ccncc3)cc2)cc1 (stereo unspecified),0.05 to 0.5
9,NC(CC(=O)NCc1cccc([N+](=O)[O-])c1)c1ccc(C(=O)Nc2ccncc2)cc1 (stereo unspecified),0.05 to 0.5
10,CN(CC(N)c1ccc(C(=O)Nc2ccncc2)cc1)C(=O)C1CC(=O)c2ccccc21 (stereo unspecified),0.5 to 5
11,N[C@H](CC(=O)N[C@H]1CCCc2ccccc21)c1ccc(C(=O)Nc2ccncc2)cc1,0.05 to 0.5
12,NC(CNC(=O)C1CCOc2ccccc21)c1ccc(C(=O)Nc2ccncc2)cc1 (stereo unspecified),0.05 to 0.5
13,NC(CNC(=O)CCc1ccc(F)cc1)c1ccc(C(=O)Nc2ccncc2)cc1 (stereo unspecified),0.05 to 0.5
14,NC(CC(=O)NCCc1cccc(F)c1)c1ccc(C(=O)Nc2ccncc2)cc1 (stereo unspecified),0.5 to 5
15,NC(c1ccc(C(=O)Nc2ccncc2)cc1)C1CCCN1C(=O)Cc1cccc(Br)c1 (stereo unspecified),0.05 to 0.5
16,NC(CNC(=O)Nc1ccc(Cl)cc1)c1ccc(C(=O)Nc2ccncc2)cc1 (stereo unspecified),0.05 to 0.5
17,NC(c1ccc(C(=O)Nc2ccncc2)cc1)C1CCCN1C(=O)Cc1ccccc1F (stereo unspecified),0.05 to 0.5
18,CC1CCC(NC(=O)CC(N)c2ccc(C(=O)Nc3ccncc3)cc2)CC1 (stereo unspecified),0.05 to 0.5
19,CC[C@H](NC(=O)CC(N)c1ccc(C(=O)Nc2ccncc2)cc1)c1ccccc1 (stereo partly specified),0.05 to 0.5
20,CC(C)(C(=O)N1CCCC1C(N)c1ccc(C(=O)Nc2ccncc2)cc1)c1ccc(F)c(Cl)c1 (stereo unspecified),0.5 to 5
21,CN(CC(N)c1ccc(C(=O)Nc2ccncc2)cc1)C(=O)Cc1cccc(Br)c1 (stereo unspecified),0.5 to 5
22,NC(CNC(=O)c1ccc2ncccc2c1)c1ccc(C(=O)Nc2ccncc2)cc1 (stereo unspecified),0.5 to 5
23,NC(c1ccc(C(=O)Nc2ccncc2)cc1)C1CCCN1C(=O)C1(c2cccc(F)c2)CCCC1 (stereo unspecified),0.5 to 5
24,NC(c1ccc(C(=O)Nc2ccncc2)cc1)C1CCCN1C(=O)C1(c2ccc(F)cc2F)CC1 (stereo unspecified),0.5 to 5
25,Cc1ccccc1CNC(=O)CC(N)c1ccc(C(=O)Nc2ccncc2)cc1 (stereo unspecified),0.05 to 0.5
26,NC(c1ccc(C(=O)Nc2ccncc2)cc1)C1CCCN1C(=O)Cc1cncc(Br)c1 (stereo unspecified),0.5 to 5

row,SMILES,IC50 [µM]
1,CC(Cc1ccc(Cl)cc1)NC(=O)CC(N)c1ccc(C(=O)Nc2ccncc2)cc1 (stereo unspecified),0.05 to 0.5
2,NC(CNC(=O)CNC(=O)c1ccccc1)c1ccc(C(=O)Nc2ccncc2)cc1 (stereo unspecified),0.05 to 0.5
3,NC(c1ccc(C(=O)Nc2ccncc2)cc1)C1CCCN1C(=O)C1CCOc2ccc(F)cc21 (stereo unspecified),0.5 to 5
4,N#CCCN(C(=O)CC(N)c1ccc(C(=O)Nc2ccncc2)cc1)C1CC1 (stereo unspecified),0.5 to 5
5,COc1ccc(CC(=O)N(C)CC(N)c2ccc(C(=O)Nc3ccncc3)cc2)cc1F (stereo unspecified),0.5 to 5
6,COc1ccc(C2(C(=O)N3CCCC3C(N)c3ccc(C(=O)Nc4ccncc4)cc3)CC2)cc1 (stereo unspecified),0.5 to 5
7,N[C@H](CNC(=O)C1(c2ccc(F)cc2)CCCC1)c1ccc(C(=O)Nc2ccncc2)cc1,0.05 to 0.5
8,Cc1nc(-c2ccccc2)sc1C(=O)NCC(N)c1ccc(C(=O)Nc2ccncc2)cc1 (stereo unspecified),0.5 to 5
9,NC(CC(=O)NCc1cccc2ccccc12)c1ccc(C(=O)Nc2ccncc2)cc1 (stereo unspecified),0.05 to 0.5
10,NC(CC(=O)NCCc1ccccc1F)c1ccc(C(=O)Nc2ccncc2)cc1 (stereo unspecified),0.05 to 0.5
11,NC(CNC(=O)c1ccccc1Oc1ccccc1)c1ccc(C(=O)Nc2ccncc2)cc1 (stereo unspecified),0.5 to 5
12,NC(c1ccc(C(=O)Nc2ccncc2)cc1)C1CCCN1C(=O)Cc1cccc(F)c1 (stereo unspecified),0.5 to 5
13,NC(c1ccc(C(=O)Nc2ccncc2)cc1)C1CCCN1C(=O)Cc1ccc(F)c(Cl)c1 (stereo unspecified),0.05 to 0.5
14,CN(CC(N)c1ccc(C(=O)Nc2ccncc2)cc1)C(=O)C1(c2ccc(Cl)cc2)CC1 (stereo unspecified),0.5 to 5
15,NC(CC(=O)NCC1CCCO1)c1ccc(C(=O)Nc2ccncc2)cc1 (stereo unspecified),0.05 to 0.5
16,CC[C@@H](NC(=O)CC(N)c1ccc(C(=O)Nc2ccncc2)cc1)c1ccccc1 (stereo partly specified),0.05 to 0.5
17,NC(c1ccc(C(=O)Nc2ccncc2)cc1)C1CCCN1C(=O)Cc1ccc2ccccc2c1 (stereo unspecified),0.5 to 5
18,COc1cccc(CC(=O)N(C)CC(N)c2ccc(C(=O)Nc3ccncc3)cc2)c1 (stereo unspecified),0.05 to 0.5
19,NC(CC(=O)NNC(=O)c1ccco1)c1ccc(C(=O)Nc2ccncc2)cc1 (stereo unspecified),0.05 to 0.5
20,NC(c1ccc(C(=O)Nc2ccncc2)cc1)C1CCCN1C(=O)C(c1ccccc1)C1CCCCC1 (stereo unspecified),0.5 to 5
21,CC(NC(=O)CC(N)c1ccc(C(=O)Nc2ccncc2)cc1)c1cccc2ccccc12 (stereo unspecified),0.05 to 0.5
22,Cc1ccc(CC(=O)N2CCCC2C(N)c2ccc(C(=O)Nc3ccncc3)cc2)cc1 (stereo unspecified),0.5 to 5
23,CN(CC(N)c1ccc(C(=O)Nc2ccncc2)cc1)C(=O)C(C)(C)c1ccc(Cl)cc1 (stereo unspecified),0.5 to 5
24,CN(CC(N)c1ccc(C(=O)Nc2ccncc2)cc1)C(=O)C(C)(C)c1ccc(F)c(Cl)c1 (stereo unspecified),0.5 to 5
25,COc1cccc2cc(C(=O)NCC(N)c3ccc(C(=O)Nc4ccncc4)cc3)oc12 (stereo unspecified),0.05 to 0.5
26,CN(C)CCNC(=O)CC(N)c1ccc(C(=O)Nc2ccncc2)cc1 (stereo unspecified),0.05 to 0.5

row,SMILES,IC50 [µM]
1,NC(CNC(=O)Cc1ccc2c(c1)OCO2)c1ccc(C(=O)Nc2ccncc2)cc1 (stereo unspecified),0.05 to 0.5
2,N#Cc1ccc(C(=O)NCC(N)c2ccc(C(=O)Nc3ccncc3)cc2)cc1 (stereo unspecified),0.5 to 5
3,N[C@H](CC(=O)NC1COc2ccccc21)c1ccc(C(=O)Nc2ccncc2)cc1 (stereo partly specified),< 0.05
4,CCOc1ccccc1CNC(=O)CC(N)c1ccc(C(=O)Nc2ccncc2)cc1 (stereo unspecified),0.05 to 0.5
5,CN(CC(N)c1ccc(C(=O)Nc2ccncc2)cc1)C(=O)C1(c2ccc(F)cc2)CC1 (stereo unspecified),0.5 to 5
6,NC(c1ccc(C(=O)Nc2ccncc2)cc1)C1CCCN1C(=O)C1(c2ccc(F)cc2Cl)CC1 (stereo unspecified),0.5 to 5
7,COc1ccc(CC(=O)N(C)CC(N)c2ccc(C(=O)Nc3ccncc3)cc2)c(OC)c1 (stereo unspecified),0.05 to 0.5
8,NC(CNC(=O)Cc1cccs1)c1ccc(C(=O)Nc2ccncc2)cc1 (stereo unspecified),0.05 to 0.5
9,CC(=O)Nc1ccc(C(=O)NCC(N)c2ccc(C(=O)Nc3ccncc3)cc2)cc1 (stereo unspecified),0.5 to 5
10,NC(CNC(=O)CSc1ncccn1)c1ccc(C(=O)Nc2ccncc2)cc1 (stereo unspecified),0.5 to 5
11,CN(CC(N)c1ccc(C(=O)Nc2ccncc2)cc1)C(=O)Cc1ccc(Br)cc1 (stereo unspecified),0.5 to 5
12,Cc1ccccc1CC(=O)N(C)CC(N)c1ccc(C(=O)Nc2ccncc2)cc1 (stereo unspecified),0.5 to 5
13,CC(=O)NCC(N)c1ccc(C(=O)Nc2ccncc2)cc1 (stereo unspecified),0.5 to 5
14,COc1cccc(NC(=O)NCC(N)c2ccc(C(=O)Nc3ccncc3)cc2)c1 (stereo unspecified),0.05 to 0.5
15,CN(CC(N)c1ccc(C(=O)Nc2ccncc2)cc1)C(=O)C1(c2cccs2)CC1 (stereo unspecified),0.5 to 5
16,NC(CNC(=O)CC1CC1)c1ccc(C(=O)Nc2ccncc2)cc1 (stereo unspecified),0.5 to 5
17,COc1ccccc1CC(=O)N1CCCC1C(N)c1ccc(C(=O)Nc2ccncc2)cc1 (stereo unspecified),0.5 to 5
18,COc1cccc(OC)c1CNC(=O)CC(N)c1ccc(C(=O)Nc2ccncc2)cc1 (stereo unspecified),0.05 to 0.5
19,NC(CC(=O)Nc1ccc2cc[nH]c2c1)c1ccc(C(=O)Nc2ccncc2)cc1 (stereo unspecified),0.05 to 0.5
20,NC(c1ccc(C(=O)Nc2ccncc2)cc1)C1CCCN1C(=O)C1CCc2ccccc21 (stereo unspecified),0.5 to 5
21,NC(c1ccc(C(=O)Nc2ccncc2)cc1)C1CCCN1C(=O)C1CCc2cc(F)ccc21 (stereo unspecified),0.5 to 5
22,CN(CC(N)c1ccc(C(=O)Nc2ccncc2)cc1)C(=O)C1(c2ccc(F)cc2)CCCC1 (stereo unspecified),0.5 to 5
23,Cc1ccccc1NC(=S)NCC(N)c1ccc(C(=O)Nc2ccncc2)cc1 (stereo unspecified),0.5 to 5
24,NC(CNC(=O)Cc1ccc2ccccc2c1)c1ccc(C(=O)Nc2ccncc2)cc1 (stereo unspecified),0.5 to 5
25,NC(CNC(=O)NC1CCCC1)c1ccc(C(=O)Nc2ccncc2)cc1 (stereo unspecified),0.5 to 5
26,NC(CC(=O)NCc1cccc(F)c1)c1ccc(C(=O)Nc2ccncc2)cc1 (stereo unspecified),0.05 to 0.5

row,SMILES,IC50 [µM]
1,NC(CNC(=O)C1(c2ccc(Cl)cc2)CC1)c1ccc(C(=O)Nc2ccncc2)cc1 (stereo unspecified),0.05 to 0.5
2,CC(C)(C(=O)N1CCCC1C(N)c1ccc(C(=O)Nc2ccncc2)cc1)c1ccc(Cl)c(Cl)c1 (stereo unspecified),0.5 to 5
3,CN(CC(N)c1ccc(C(=O)Nc2ccncc2)cc1)C(=O)Cc1ccc(Cl)c(Cl)c1 (stereo unspecified),0.5 to 5
4,NC(CNC(=O)c1ccc2c(c1)OCO2)c1ccc(C(=O)Nc2ccncc2)cc1 (stereo unspecified),0.05 to 0.5
5,COc1ccc(CC(=O)NCC(N)c2ccc(C(=O)Nc3ccncc3)cc2)cc1 (stereo unspecified),0.05 to 0.5
6,CC(C)(NC(=O)CC(N)c1ccc(C(=O)Nc2ccncc2)cc1)c1ccc(Cl)cc1 (stereo unspecified),0.05 to 0.5
7,N[C@@H](CNC(=O)C1(c2ccc(Cl)cc2)CC1)c1ccc(C(=O)Nc2ccncc2)cc1,0.5 to 5
8,NC(CNC(=O)Nc1cccc2ccccc12)c1ccc(C(=O)Nc2ccncc2)cc1 (stereo unspecified),0.05 to 0.5
9,N[C@H](CC(=O)NCc1ccc(F)cc1)c1ccc(C(=O)Nc2ccncc2)cc1,0.05 to 0.5
10,CN(CC(N)c1ccc(C(=O)Nc2ccncc2)cc1)C(=O)Cc1ccc(F)cc1 (stereo unspecified),0.5 to 5
11,NC(CNC(=O)c1ccc(C(=O)c2ccccc2)cc1)c1ccc(C(=O)Nc2ccncc2)cc1 (stereo unspecified),0.5 to 5
12,COc1ccc(OC)c(CNC(=O)CC(N)c2ccc(C(=O)Nc3ccncc3)cc2)c1 (stereo unspecified),0.05 to 0.5
13,NC(CNC(=O)CNC(=O)c1ccco1)c1ccc(C(=O)Nc2ccncc2)cc1 (stereo unspecified),0.05 to 0.5
14,NC(CNC(=O)COc1ccc(F)cc1)c1ccc(C(=O)Nc2ccncc2)cc1 (stereo unspecified),0.05 to 0.5
15,COc1ccc(CNC(=O)CC(N)c2ccc(C(=O)Nc3ccncc3)cc2)cc1OC (stereo unspecified),0.05 to 0.5
16,NC(c1ccc(C(=O)Nc2ccncc2)cc1)C1CCCN1C(=O)C1(c2ccc(Cl)cc2)CCCC1 (stereo unspecified),0.5 to 5
17,N[C@@H](CC(=O)N[C@H]1CCCc2ccccc21)c1ccc(C(=O)Nc2ccncc2)cc1,0.05 to 0.5
18,NC(CNC(=O)C1CCc2ccccc2C1)c1ccc(C(=O)Nc2ccncc2)cc1 (stereo unspecified),0.5 to 5
19,NC(CC(=O)NCCc1ccc(Oc2ccccc2)cc1)c1ccc(C(=O)Nc2ccncc2)cc1 (stereo unspecified),0.05 to 0.5
20,NC(CC(=O)NCc1cccc(Cl)c1)c1ccc(C(=O)Nc2ccncc2)cc1 (stereo unspecified),0.05 to 0.5
21,NC(CNC(=O)Cc1c(F)cccc1F)c1ccc(C(=O)Nc2ccncc2)cc1 (stereo unspecified),0.5 to 5
22,NC(CNC(=O)c1ccsc1)c1ccc(C(=O)Nc2ccncc2)cc1 (stereo unspecified),0.05 to 0.5
23,NC(CNC(=O)c1ccc2[nH]nnc2c1)c1ccc(C(=O)Nc2ccncc2)cc1 (stereo unspecified),0.5 to 5
